From patent publication US20100311714A1, “1H-IMIDAZO[4,5-c]QUINOLINONE COMPOUNDS” (priority 2009, published 2010)
Like-named read-outs stand apart in the source and are kept apart here.

What was measured:
[1] = target: T1, PI3K beta (Homo sapiens, UniProt P42338); test: PI3K beta kinase assay (Kinase-Glo luminescence); format: biochemical
T1 construct: for the full-length p110-b subunit are generated and fused by overlapping PCR; His tag (C); made in house; host or cells: baculovirus BV949; Tn5 (Trichoplusia ni) or TiniPro insect cells
T1 sequence (P42338 with tags, fused parts or gaps limits assumed): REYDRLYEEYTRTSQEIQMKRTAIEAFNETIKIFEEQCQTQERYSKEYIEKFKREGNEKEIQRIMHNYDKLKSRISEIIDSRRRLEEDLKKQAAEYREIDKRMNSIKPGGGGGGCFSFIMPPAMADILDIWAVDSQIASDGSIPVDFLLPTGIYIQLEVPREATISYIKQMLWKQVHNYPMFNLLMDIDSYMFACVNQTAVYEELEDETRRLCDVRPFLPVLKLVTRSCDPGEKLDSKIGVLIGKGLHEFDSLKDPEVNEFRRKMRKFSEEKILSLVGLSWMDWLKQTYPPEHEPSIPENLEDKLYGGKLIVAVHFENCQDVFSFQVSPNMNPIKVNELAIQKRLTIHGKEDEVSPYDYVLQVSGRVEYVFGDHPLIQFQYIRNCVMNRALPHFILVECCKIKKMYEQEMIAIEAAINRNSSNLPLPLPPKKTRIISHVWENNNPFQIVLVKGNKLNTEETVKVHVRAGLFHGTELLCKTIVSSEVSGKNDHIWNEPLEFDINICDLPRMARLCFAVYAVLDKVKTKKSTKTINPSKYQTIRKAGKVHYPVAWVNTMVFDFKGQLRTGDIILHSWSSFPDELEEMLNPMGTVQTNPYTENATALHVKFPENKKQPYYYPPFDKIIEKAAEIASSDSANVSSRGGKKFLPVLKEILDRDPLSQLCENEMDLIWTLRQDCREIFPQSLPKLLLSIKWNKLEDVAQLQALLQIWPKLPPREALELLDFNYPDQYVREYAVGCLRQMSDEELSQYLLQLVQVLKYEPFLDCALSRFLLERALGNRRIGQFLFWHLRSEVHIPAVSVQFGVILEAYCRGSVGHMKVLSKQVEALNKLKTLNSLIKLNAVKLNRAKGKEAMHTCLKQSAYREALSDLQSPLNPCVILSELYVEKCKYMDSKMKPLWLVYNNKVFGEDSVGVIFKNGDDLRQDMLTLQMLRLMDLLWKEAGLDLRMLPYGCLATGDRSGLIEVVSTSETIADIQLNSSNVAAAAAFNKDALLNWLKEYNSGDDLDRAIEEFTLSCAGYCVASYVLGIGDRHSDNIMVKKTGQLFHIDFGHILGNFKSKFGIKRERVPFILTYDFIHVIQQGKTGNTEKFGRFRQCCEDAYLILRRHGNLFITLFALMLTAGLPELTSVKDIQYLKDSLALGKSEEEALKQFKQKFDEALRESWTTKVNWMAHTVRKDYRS
Method in brief: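 Kinase-Glo luminescence read out ATP left after a 60-min room-temperature reaction, started with ATP (1 μM final) on 25 nM His-tagged p85 iSH2–p110β (BV949) plus 10 μg/mL PI substrate in pH 7.5 Tris buffer. Percent inhibition at eight concentrations was fitted to a four-parameter logistic model for IC50.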

[2] = target: T2, PI3K alfa (Homo sapiens, UniProt P42336); test: PI3K alpha kinase assay (Kinase-Glo luminescence); format: biochemical
T2 construct: His tag (C); made in house; host or cells: baculovirus BV1075; Tn5 (Trichoplusia ni) or TiniPro insect cells
T2 sequence (P42336 with tags, fused parts or gaps limits assumed): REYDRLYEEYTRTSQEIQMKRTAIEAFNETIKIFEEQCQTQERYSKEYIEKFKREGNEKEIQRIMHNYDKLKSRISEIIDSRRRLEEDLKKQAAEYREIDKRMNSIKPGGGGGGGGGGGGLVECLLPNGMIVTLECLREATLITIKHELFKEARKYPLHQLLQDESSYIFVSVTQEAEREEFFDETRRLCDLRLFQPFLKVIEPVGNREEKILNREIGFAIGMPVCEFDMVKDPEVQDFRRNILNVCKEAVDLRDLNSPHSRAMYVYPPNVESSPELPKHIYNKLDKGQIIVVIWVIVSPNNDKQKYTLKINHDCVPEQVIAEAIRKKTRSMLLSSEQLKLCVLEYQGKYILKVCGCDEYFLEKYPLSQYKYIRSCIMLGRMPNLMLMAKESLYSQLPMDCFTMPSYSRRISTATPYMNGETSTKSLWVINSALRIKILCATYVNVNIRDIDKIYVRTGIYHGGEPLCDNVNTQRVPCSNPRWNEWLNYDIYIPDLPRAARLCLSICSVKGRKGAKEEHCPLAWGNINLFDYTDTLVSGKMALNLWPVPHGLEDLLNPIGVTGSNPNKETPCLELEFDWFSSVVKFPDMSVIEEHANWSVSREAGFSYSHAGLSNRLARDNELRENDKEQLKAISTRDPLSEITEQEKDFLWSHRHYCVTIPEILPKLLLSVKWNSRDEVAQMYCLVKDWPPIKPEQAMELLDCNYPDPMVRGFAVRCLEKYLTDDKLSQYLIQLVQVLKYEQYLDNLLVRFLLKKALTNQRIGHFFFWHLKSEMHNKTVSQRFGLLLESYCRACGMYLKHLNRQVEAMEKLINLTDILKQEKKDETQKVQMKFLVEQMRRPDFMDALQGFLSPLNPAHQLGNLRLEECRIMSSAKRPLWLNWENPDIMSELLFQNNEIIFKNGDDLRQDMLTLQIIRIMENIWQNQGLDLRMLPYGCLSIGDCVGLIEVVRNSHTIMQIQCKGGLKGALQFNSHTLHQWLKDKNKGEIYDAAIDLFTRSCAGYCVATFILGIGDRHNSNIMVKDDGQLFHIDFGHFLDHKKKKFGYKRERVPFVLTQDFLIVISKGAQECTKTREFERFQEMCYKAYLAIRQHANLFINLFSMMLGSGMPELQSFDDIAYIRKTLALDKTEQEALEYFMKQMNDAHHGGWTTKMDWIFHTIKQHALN
Method in brief: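 IC50 values come from a four-parameter logistic fit of percent inhibition at eight concentrations, typically 10 to 0.003 μM. Recombinant PI3Kα at 10 nM turned over 1 μM ATP with 10 μg/mL PI for 60 min at room temperature, and residual ATP was measured by Kinase-Glo.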

IC50 ([1]; read-out: EPK_PI3Kbeta/IC50) | IC50 ([2]; read-out: EPK_PI3Kalfa/IC50) | IC50 ([1]; read-out: PI3Kbeta/IC50) | IC50 ([2]; read-out: PI3Kalfa/IC50) | Compound
28 nM | 12 nM |  |  | CCNc1cc(-c2ccc3ncc4c(c3c2)n(-c2ccc(N(C)CCOC)nc2C)c(=O)n4C)cnc1C [Example 15.6, 8-(5-Ethylamino-6-methyl-pyridin-3-yl)-1-{6-[(2-methoxy-ethyl)-methyl-amino]-2-methyl-pyridin-3-yl}-3-methyl-1,3-dihydro-imidazo[4,5-c]quinolin-2-one]
1100 nM | 16 nM |  |  | Cc1ccc(-n2c(=O)n(C)c3cnc4ccc(-c5cnc6c(ccn6C)c5)cc4c32)c(C)n1 [Example 14.7, 1-(2,6-Dimethyl-pyridin-3-yl)-3-methyl-8-(1-methyl-1H-pyrrolo[2,3-b]pyridin-5-yl)-1,3-dihydro-imidazo[4,5-c]quinolin-2-one]
50 nM | 19 nM |  |  | CCNc1cc(-c2ccc3ncc4c(c3c2)n(-c2ccc(C)nc2C)c(=O)n4C)cnc1C [Example 14.6, 1-(2,6-Dimethyl-pyridin-3-yl)-8-(5-ethylamino-6-methyl-pyridin-3-yl)-3-methyl-1,3-dihydro-imidazo[4,5-c]quinolin-2-one]
 |  | 263 nM | 19 nM | COc1ccc(-c2ccc3ncc4c(c3c2)n(-c2cccnc2)c(=O)n4C)cn1 [Example 5.4, 8-(6-Methoxy-pyridin-3-yl)-3-methyl-1-pyridin-3-yl-1,3-dihydro-imidazo[4,5-c]quinolin-2-one]
49 nM | 15 nM |  |  | CCNc1cc(-c2ccc3ncc4c(c3c2)n(-c2ccc(N(C)CC)nc2C)c(=O)n4C)cnc1C [Example 12.2, 8-(5-Ethylamino-6-methyl-pyridin-3-yl)-1-[6-(ethyl-methyl-amino)-2-methyl-pyridin-3-yl]-3-methyl-1,3-dihydro-imidazo[4,5-c]quinolin-2-one]
19 nM | 10 nM |  |  | Cc1nc(N2CC(F)(F)C2)ccc1-n1c(=O)n(C)c2cnc3ccc(-c4cncc(C(C)(C)O)c4)cc3c21 [Example 24.2, 1-[6-(3,3-Difluoro-azetidin-1-yl)-2-methyl-pyridin-3-yl]-8-[5-(1-hydroxy-1-methyl-ethyl)-pyridin-3-yl]-3-methyl-1,3-dihydro-imidazo[4,5-c]quinolin-2-one]
154 nM | 36 nM |  |  | CCN(C)c1ccc(-n2c(=O)n(C)c3cnc4ccc(-c5ccc(NC)nc5)cc4c32)c(C)n1 [Example 12.1, 1-[6-(Ethyl-methyl-amino)-2-methyl-pyridin-3-yl]-3-methyl-8-(6-methylamino-pyridin-3-yl)-1,3-dihydro-imidazo[4,5-c]quinolin-2-one]
62 nM | 51 nM |  |  | Cc1nc(C(C)(C)O)ccc1-n1c(=O)n(C)c2cnc3ccc(-c4cncc(OC(C)C)c4)cc3c21 [Example 31.9, 1-[6-(1-Hydroxy-1-methyl-ethyl)-2-methyl-pyridin-3-yl]-8-(5-isopropoxy-pyridin-3-yl)-3-methyl-1,3-dihydro-imidazo[4,5-c]quinolin-2-one]
396 nM | 140 nM |  |  | Cc1ccc(-n2c(=O)n(C)c3cnc4ccc(-c5cnc(N(C)C)nc5)cc4c32)c(C)n1 [Example 14.3, 8-(2-Dimethylamino-pyrimidin-5-yl)-1-(2,6-dimethyl-pyridin-3-yl)-3-methyl-1,3-dihydro-imidazo[4,5-c]quinolin-2-one]
212 nM | 41 nM |  |  | COCc1ncc(-c2ccc3ncc4c(c3c2)n(-c2ccc(OC)nc2OC)c(=O)n4C)cc1OC [Example 8.12, 1-(2,6-Dimethoxy-pyridin-3-yl)-8-(5-methoxy-6-methoxymethyl-pyridin-3-yl)-3-methyl-1,3-dihydro-imidazo[4,5-c]quinolin-2-one]
236 nM | 101 nM |  |  | Cc1nc(F)ccc1-n1c(=O)n(C)c2cnc3ccc(-c4cncc(N)c4)cc3c21 [Example 7.16, 8-(5-Amino-pyridin-3-yl)-1-(6-fluoro-2-methyl-pyridin-3-yl)-3-methyl-1,3-dihydro-imidazo[4,5-c]quinolin-2-one]
41 nM | 40 nM |  |  | CCNc1cc(-c2ccc3ncc4c(c3c2)n(-c2ccc(OC)nc2Cl)c(=O)n4C)cnc1C [Example 18.1, 1-(2-Chloro-6-methoxy-pyridin-3-yl)-8-(5-ethylamino-6-methyl-pyridin-3-yl)-3-methyl-1,3-dihydro-imidazo[4,5-c]quinolin-2-one]
150 nM | 33 nM |  |  | CCNc1cc(-c2ccc3ncc4c(c3c2)n(-c2cnc(F)cc2C)c(=O)n4C)cnc1C [Example 16.2, 8-(5-Ethylamino-6-methyl-pyridin-3-yl)-1-(6-fluoro-4-methyl-pyridin-3-yl)-3-methyl-1,3-dihydro-imidazo[4,5-c]quinolin-2-one]
282 nM | 30 nM |  |  | CNc1ncc(-c2ccc3ncc4c(c3c2)n(-c2ccc(C)nc2C)c(=O)n4C)cn1 [Example 14.4, 1-(2,6-Dimethyl-pyridin-3-yl)-3-methyl-8-(2-methylamino-pyrimidin-5-yl)-1,3-dihydro-imidazo[4,5-c]quinolin-2-one]
2590 nM | 16 nM |  |  | COc1ccc(-n2c(=O)n(C)c3cnc4ccc(-c5cnc(CO)c(OC)c5)cc4c32)c(C)n1 [Example 11.8, 8-(6-Hydroxymethyl-5-methoxy-pyridin-3-yl)-1-(6-methoxy-2-methyl-pyridin-3-yl)-3-methyl-1,3-dihydro-imidazo[4,5-c]quinolin-2-one]
448 nM | 31 nM |  |  | COCCN(C)c1ccc(-n2c(=O)n(C)c3cnc4ccc(-c5cnc(N(C)C)nc5)cc4c32)c(C)n1 [Example 15.5, 8-(2-Dimethylamino-pyrimidin-5-yl)-1-{6-[(2-methoxy-ethyl)-methyl-amino]-2-methyl-pyridin-3-yl}-3-methyl-1,3-dihydro-imidazo[4,5-c]quinolin-2-one]
 |  | 580 nM | 56 nM | CCOc1ccc(-c2ccc3ncc4c(c3c2)n(-c2cccnc2C)c(=O)n4C)cn1 [Example 2.1, 8-(6-Ethoxy-pyridin-3-yl)-3-methyl-1-(2-methyl-pyridin-3-yl)-1,3-dihydro-imidazo[4,5-c]quinolin-2-one]
99 nM | 11 nM |  |  | CNc1ncc(-c2ccc3ncc4c(c3c2)n(-c2ccc(N(C)C)nc2C)c(=O)n4C)cn1 [Example 19.1, 1-(6-Dimethylamino-2-methyl-pyridin-3-yl)-3-methyl-8-(2-methylamino-pyrimidin-5-yl)-1,3-dihydro-imidazo[4,5-c]quinolin-2-one]
891 nM | 162 nM |  |  | CCOc1ccc(-c2ccc3ncc4c(c3c2)n(-c2ccc(NC(=O)COC)nc2C)c(=O)n4C)cn1 [Example 20.2, N-{5-[8-(6-Ethoxy-pyridin-3-yl)-3-methyl-2-oxo-2,3-dihydro-imidazo[4,5-c]quinolin-1-yl]-6-methyl-pyridin-2-yl}-2-methoxy-acetamide]
15 nM | 7 nM |  |  | COCCN(C)c1ccc(-n2c(=O)n(C)c3cnc4ccc(-c5cnc(N)c(C(F)(F)F)c5)cc4c32)c(C)n1 [Example 15.1, 8-(6-Amino-5-trifluoromethyl-pyridin-3-yl)-1-{6-[(2-methoxy-ethyl)-methyl-amino]-2-methyl-pyridin-3-yl}-3-methyl-1,3-dihydro-imidazo[4,5-c]quinolin-2-one]
279 nM | 18 nM |  |  | COCCN(C)c1ccc(-n2c(=O)n(C)c3cnc4ccc(-c5cnc6c(ccn6C)c5)cc4c32)c(C)n1 [Example 15.7, 1-{6-[(2-Methoxy-ethyl)-methyl-amino]-2-methyl-pyridin-3-yl}-3-methyl-8-(1-methyl-1H-pyrrolo[2,3-b]pyridin-5-yl)-1,3-dihydro-imidazo[4,5-c]quinolin-2-one]
47 nM | 14 nM |  |  | Cc1cc(F)ncc1-n1c(=O)n(C)c2cnc3ccc(-c4cnc(N)c(C(F)(F)F)c4)cc3c21 [Example 16.1, 8-(6-Amino-5-trifluoromethyl-pyridin-3-yl)-1-(6-fluoro-4-methyl-pyridin-3-yl)-3-methyl-1,3-dihydro-imidazo[4,5-c]quinolin-2-one]
1180 nM | 71 nM |  |  | CNc1ncc(-c2ccc3ncc4c(c3c2)n(-c2cnc(F)cc2C)c(=O)n4C)cn1 [Example 16.3, 1-(6-Fluoro-4-methyl-pyridin-3-yl)-3-methyl-8-(2-methylamino-pyrimidin-5-yl)-1,3-dihydro-imidazo[4,5-c]quinolin-2-one]
38 nM | 15 nM |  |  | CNc1cc(-c2ccc3ncc4c(c3c2)n(-c2ccc(C(F)(F)F)nc2C)c(=O)n4C)cnc1CO [Example 33.2, 8-(6-Hydroxymethyl-5-methylamino-pyridin-3-yl)-3-methyl-1-(2-methyl-6-trifluoromethyl-pyridin-3-yl)-1,3-dihydro-imidazo[4,5-c]quinolin-2-one]
201 nM | 81 nM |  |  | CCOc1cc(-c2ccc3ncc4c(c3c2)n(-c2cccnc2C)c(=O)n4C)cnc1C [Example 2.22, 8-(5-Ethoxy-6-methyl-pyridin-3-yl)-3-methyl-1-(2-methyl-pyridin-3-yl)-1,3-dihydro-imidazo[4,5-c]quinolin-2-one]
41 nM | 17 nM |  |  | CNc1cc(-c2ccc3ncc4c(c3c2)n(-c2ccc(F)nc2C)c(=O)n4C)cnc1CO [Example 7.11, 1-(6-Fluoro-2-methyl-pyridin-3-yl)-8-(6-hydroxymethyl-5-methylamino-pyridin-3-yl)-3-methyl-1,3-dihydro-imidazo[4,5-c]quinolin-2-one]
